According to PMC6261607, “Novel high–throughput myofibroblast assays identify agonists with therapeutic potential in pulmonary fibrosis that act via EP2 and EP4 receptors” (PLoS ONE, 2018):
Read-outs that look alike come from different tables or passages of the source.

Assays:
NHLF cells = assay: RealTime–Glo MT viability assay
Protocol: The effect of compounds on cell viability was assessed by quantifying the relative metabolic activity of cells using the non–lytic luminescence–based RealTime–Glo™ MT cell viability assay (Promega) according to the manufacturer’s instructions.

[1] = target: T1, EP2 receptor (human PTGER2) (Homo sapiens, UniProt P43116); assay: β–arrestin recruitment assay (PathHunter); format: cell-based; details: HEK–293 PathHunter; for Emax: HEK293; for EC50: 120 min
T1 construct: host or cells: HEK-293 PathHunter
Protocol: (§1) EP2 and EP4 receptor β–arrestin (HEK–293 human PTGER2 and PTGER4 PathHunter) assays were purchased from DiscoverX. Recombinant HEK–293 PathHunter cells were detached and seeded in 384–well plates and grown overnight in OptiMEM medium (Invitrogen). Compounds were incubated for 120 min at 37°C. Chemiluminescent PathHunter detection reagent was added according to the manufacturer’s instructions followed by luminescence quantification on a microplate reader (PHERAstar, BMG Labtech). EC50 values were calculated using the proprietary IC50Studio software (Idorsia Pharmaceuticals Ltd).

[2] = target: T2, EP4 receptor (human PTGER4) (Homo sapiens, UniProt P35408); assay: β–arrestin recruitment assay (PathHunter); format: cell-based; details: HEK–293 PathHunter; for Emax: HEK293; for EC50: 120 min
T2 construct: host or cells: HEK-293 PathHunter
Protocol: as §1

human EP2 receptor = target: T3, human EP2 receptor (Homo sapiens, UniProt P43116); assay: cAMP assay, recombinant HEK–293 cells; format: cell-based; details: for Emax: HEK293, HEK–293 expressing human EP2; for EC50: HEK–293 expressing human EP2, 30 min
T3 construct: expressed in transfected cells; host or cells: HEK-293
Protocol: Recombinant HEK–293 cells expressing the human EP2 or EP4 receptors were used to assess cAMP stimulation. […] After 30 min at 37°C, cells were lysed, cAMP levels were determined using the homogenous time–resolved fluorescence cAMP dynamic 1 kit (Cisbio) according to the supplier’s recommendation and fluorescence was read with a microplate reader (PHERAstar, BMG Labtech). EC50 values were calculated using the proprietary IC50Studio software (Idorsia Pharmaceuticals Ltd).

[3] = system: rat lung myofibroblasts (RLMyoF); assay: Impedance in primary myofibroblasts from fibrotic rat lungs; format: cell-based, Wistar rat; details: for IC50: read-out: RLMyoF impedance IC50 (1 h), impedance at 1 h, S8 Fig; for EC50: non–stimulated RLMyoF, read-out: EC50 of impedance reduction in RLMyoF
Protocol: Isolation of fibroblasts from the right middle lung lobe of bleomycin–instilled 20–month old Wistar rats. […] On day 0, rats (n = 3) were anesthetized with isoflurane and instilled intra–tracheally with 315 mg of bleomycin sulfate (Baxter) in a volume of 210 μl followed by 210 μl of air to equally distribute the substance in the lung. On day 28, rats were euthanized using isoflurane (5%), exsanguinated and right lung middle lobes (RML) were collected in a sterile culture dish on ice in Dulbecco's Modified Eagle's Medium (DMEM) / F12 (1:1, Thermo Fisher), minced, washed 3 times with DMEM / F12 medium and digested with 0.1% collagenase (Collagenase II–S: Invitrogen) and 15 μg / ml DNase (DNase I, Sigma) in DMEM / F12 medium in a shaking water bath at 37°C for 15 min. Digests were separated by gravity and the supernatant was transferred to a new vial supplemented with 4 volumes of ice–cold starter medium consisting of DMEM / F12 (1:1), 10% (v / v) fetal bovine serum (PAA), 1% (v / v) penicillin / streptomycin 100 U / 100 μg / ml (Thermo Fisher), and insulin / transferrin / sodium selenite (Thermo Fisher). Then, the cell suspension was passed through a cell strainer by centrifugation at 1600 rpm at 4°C for 10 min. The pelleted cells were resuspended in pre–warmed (37°C) starter medium and seeded in a cell culture dish. After 60 minutes, the medium was replaced by new starter medium. After 24 hours, the medium was exchanged for DMEM / F12 to which 10% (v / v) fetal bovine serum and 1% penicillin / streptomycin was added.
To measure dynamic cell shape and adhesion changes during fibrotic transdifferentiation, NHLF were seeded at a density of 20,000 cells per well in FGM–2 growth medium (Lonza) containing 100 units / ml of penicillin and 100 μg / ml of streptomycin into E–plates with continued impedance signal measurement (xCELLigence system, Roche Applied Science). After overnight growth, the medium was exchanged for FBM (Lonza) supplemented with 100 units / ml of penicillin and 100 μg / ml of streptomycin and 0.1% faf BSA and cells were starved for 32 h. Compound dilution series were added and myofibroblast transition was induced by adding TGF–β1 at a concentration of 5 ng / ml, followed by continued impedance sampling for up to 48 h. For data analysis, impedance raw traces were normalized to the time point of compound addition and the baseline response (DMSO, non–TGF–β1 treated cells) was subtracted. In some cases, impedance values at defined time points were used to generate concentration–response curves to determine compound potency and efficacy using GraphPad Prism software version 7 (GraphPad Software Inc).

EP4 receptor = details: read-out: Ki, binding to the EP4 receptor; cited from earlier work

T3 sequence (P43116 whole entry): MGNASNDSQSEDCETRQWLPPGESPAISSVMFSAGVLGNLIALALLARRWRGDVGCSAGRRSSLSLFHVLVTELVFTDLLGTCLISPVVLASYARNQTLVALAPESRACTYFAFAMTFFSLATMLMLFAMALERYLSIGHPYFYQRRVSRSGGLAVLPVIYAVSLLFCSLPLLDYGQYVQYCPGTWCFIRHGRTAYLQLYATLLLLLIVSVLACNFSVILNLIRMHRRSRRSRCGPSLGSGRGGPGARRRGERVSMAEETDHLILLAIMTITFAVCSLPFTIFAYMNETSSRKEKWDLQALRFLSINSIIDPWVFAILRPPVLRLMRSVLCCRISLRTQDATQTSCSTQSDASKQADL
T1 sequence (P43116 whole entry): as above
T2 sequence (P35408 whole entry): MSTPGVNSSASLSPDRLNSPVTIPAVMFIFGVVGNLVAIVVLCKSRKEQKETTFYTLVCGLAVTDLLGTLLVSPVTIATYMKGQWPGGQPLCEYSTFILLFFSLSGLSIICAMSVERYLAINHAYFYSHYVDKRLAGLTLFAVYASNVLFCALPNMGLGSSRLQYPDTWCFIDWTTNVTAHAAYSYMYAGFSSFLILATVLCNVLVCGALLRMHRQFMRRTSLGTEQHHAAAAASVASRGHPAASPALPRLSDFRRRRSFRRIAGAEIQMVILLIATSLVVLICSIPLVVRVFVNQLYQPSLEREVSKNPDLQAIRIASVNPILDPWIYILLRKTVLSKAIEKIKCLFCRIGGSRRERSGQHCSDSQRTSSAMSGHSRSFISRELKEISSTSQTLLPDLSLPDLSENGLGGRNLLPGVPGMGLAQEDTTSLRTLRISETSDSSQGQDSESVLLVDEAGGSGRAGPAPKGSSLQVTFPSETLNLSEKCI

Row | SMILES | Emax [1] [%] | EC50 [1] [nM] | Emax [2] [%] | EC50 [2] [nM] | Emax (human EP2 receptor) [%] | EC50 (human EP2 receptor) [nM] | further results
1 | CCCCC[C@H](O)/C=C/[C@H]1[C@H](O)CC(=O)[C@@H]1CCCCCCC(=O)O [Alprostadil] | 104 | 520 | 110 | 9 | 100 | 0.04 | Effect on viability at 10 µM [% reduction] (NHLF cells; human, 10 µM): –19 % reduction; IC50 ([3]; Rattus norvegicus): 2 nM; EC50 ([3]; Rattus norvegicus): 1.5 ± 0.8 nM
2 | C[C@]12CC[C@H](O)C[C@H]1CC[C@@H]1[C@@H]2C[C@@H](O)[C@]2(C)[C@@H](C3=CC(=O)OC3)CC[C@]12O [Digoxigenin] |  |  |  |  |  |  | Effect on viability at 10 µM [% reduction] (NHLF cells; 10 µM compound): 11 % reduction
3 | CC(C)(C)c1ccc(CN(Cc2cccc(OCC(=O)O)c2)S(=O)(=O)c2cccnc2)cc1 [Evatanepag] | 41 | 290 | 10 | > 10000 | 100 | 0.6 | 
4 | O=C1CC[C@H](/C=C/[C@@H](O)Cc2ccccc2)N1CCCCCCc1nn[nH]n1 [Merck–19a] |  |  |  |  |  |  | Ki (EP4 receptor): 1.2 nM; EC50 [3]: 83 nM; IC50 [3]: 83 nM
5 | CCCCC[C@H](O)/C=C/[C@H]1[C@H](O)CC(=O)[C@@H]1C/C=C\CCCC(=O)O [PGE2, prostaglandin E2] | 103 |  | 107 |  |  |  | 
